≈ marks a conversion by molar mass, not a printed value. Entries after “also recorded” stand apart in the source; their conditions may differ.

The nature of data set [1]: Microsomal stability assay, human liver microsomes. The settings on record: 10 μM test compound, 0.5 mg/mL protein, 37° C. Format: in vitro ADME. As for the experimental part: (§1) 4 μL of 1 mM test compound at a final concentration of 10 μM dissolved in DMSO/ACN/Methanol/Ethanol was preincubated at 37° C. for 5 minutes on a digital heating shaking dry bath (Fischer scientific, Pittsburgh, Pa.) in a mixture containing 282 μL of water, 80 μL of phosphate buffer (0.5 M, pH 7.4), 20 μL of NADPH Regenerating System Solution A (BD Bioscience, San Jose, Calif.) and 4 μL of NADPH Regenerating System Solution B (BD Bioscience, San Jose, Calif.) in a total volume of 391.2 μL. Following preincubation, the reaction was initiated by addition of 8.8 μL of either human liver microsomes (BD Gentest, San Jose, Calif.), mouse liver microsomes (Life technologies, Rockford, Ill.), at a protein concentration of 0.5 mg/mL. Aliquots of 50 μL were taken at time intervals of 0 (without microsomes), 10, 20, 30, 40, 50 and 60 minutes. Each aliquot was added to 100 μL of cold acetonitrile solution containing 1 μM/2 μM internal standard. This was followed by sonication for 10 seconds and centrifugation at 10,000 rpm for 5 minutes. 100 μL of the supernatant was transferred into Spin-X HPLC filter tubes (Corning Incorporated, NY) and centrifuged at 13,000 rpm for 5 minutes. […] The ratio of the peak areas of the internal standard and test compound was calculated for every time point and the natural log of the ratio were plotted against time to determine the linear slope (k). […] All experiments were repeated three times in duplicates.
(In general: Liver microsomes are a subcellular fraction often used to study metabolism.)

A short description of data set [2]: Microsomal stability assay, mouse liver microsomes. Format: in vitro ADME. The note with it: 10 μM test compound, 0.5 mg/mL protein, 37° C.; for half-life at 10 μM: mouse, liver microsomes, pH 7.4, read-out: Half-life (min) (MLM). On the procedure:
as §1

The next data set concerns HEPG2 cell line. The experiment in a line: Cytotoxicity study, CellTiter-Glo cell viability. Format: cell-based, Human. The note with it: HEPG2, 48 hours incubation. As for the experimental part: Reagents and Instrumentation: Human liver hepatocellular carcinoma (HEPG2) cell line was purchased (ATCC) and cultured in 75 cm2 flasks (CellStar). Cells were grown in DMEM/High Glucose (Hyclone, #SH3024301) media to which non-essential amino acids (Hyclone, #SH30238.01), 10 mM HEPES (Hyclone, #SH302237.01), 5×106 units of penicillin and streptomycin (Hyclone, #SV30010), and 10% of heat inactivated fetal bovine serum (Gibco, #10082147) were added. Cells were harvested using 0.05% Trypsin (Hyclone, #SH3023601), which disrupts the cell monolayer and proteolytically cleaves the bonds between the cells and flask. The cell viability assay was evaluated using CellTiter-Glo™ Luminescent Cell Viability Assay Kit (Promega, Madison, Wis.) which contains luciferase and all its substrate except ATP. The controls for the cytotoxicity assay used were (E)-10-(bromotriphenylphosphoranyl)decyl 4-(4-(tert-butyl)phenyl)-4-oxobut-2-enoate (400 μM in DMSO, positive control) and DMSO (negative control). Cell culture was performed in a Baker Company Class II Biological Safety Cabinet. All luminescence readings were performed on a Tecan Infinite M1000 plate reader. Small volume transfers were performed on the Tecan Freedom EVO liquid handling system with a 100 nL pin tool transfer (V&P Scientific). Serial dilutions were done in 96-well polypropylene plates (Corning, #3365) and assays were conducted in 384-well white optical bottom plates.
Luminescence-Based VDR-Mediated Transcription Assay Protocol: After 48 hours of incubation at 37 °C with 5% CO2, the cells were harvested with 4 mL of 0.05% Trypsin, added to 10 mL of the assay buffer, DMEM/High Modified buffer without phenol red, and spun down for 3 minutes at 1000 rpm. The media was removed and cells were resuspended in the DMEM assay media. To each well, 40 μL of cells were added to yield a final concentration of 15,000 cells per well. The plates were then spun down for 2 minutes at 1000 rpm. After 2 hours, plated cells were treated with 100 nL×4 of small molecules and controls which were added using the pin tool. After 48 hours of incubation at 37 °C with 5% CO2, 20 μL of Cell Titer-Glo™ Luminescence Assay Kit (cytotoxicity assay) were added and luminescence was read. Controls were measured within each plate to determine the z′ factor (Equation 1) and to enable data normalization. Three independent experiments were performed in quadruplicate and data was analyzed using nonlinear regression with variable slope (GraphPrism, Equation 2). The luminescence intensity of control (untreated) cells was taken as 100% viability, and the relative cell viability compared to control was calculated. Data are presented as the means±SEM of a series of three experiments.
(In ATP-based viability assays light output follows the ATP content of the culture.)

For data set [3], the system named is METH-impaired PPI in C57/B6 mice. The experiment in a line: PPI test, methamphetamine-impaired prepulse inhibition. In kind it is in vivo, mouse. The settings on record: for rescue of METH-impaired PPI: mice, compound 10 mg/kg i.p. 15 min before METH 2 mg/kg i.p. On the procedure:
All animal experiments conducted at NTU were approved by the Institutional Animal Care and Use Committee of College of Medicine, National Taiwan University. C57/B6 (8-10 weeks) mice were used for the PPI test and Wistar rats (8-9 weeks) were used in the migraine model. Animals were housed in an animal room with a 12-h light/12-h dark cycle and free access to food and water.
The PPI test was conducted with a PPI apparatus (SR-LAB, San Diego Instruments, San Diego, Calif.) consisting of a startle chamber equipped with various programming acoustic stimulations. After acclimation, the mouse was gently placed in the startle chamber for a 4 min acclimation period with a background noise of 65 dB, which continued throughout the whole PPI test session. One PPI test session consisted of 4 types of startle trials, including the trial with the startle pulse (115 dB) alone (PULSEALONE; 115 dB, 20 ms), two trials with the startle pulse paired with 71 and 77 dB prepulses, respectively (PREPULSE+PULSE; 71 dB+115 dB and 77 dB+115 dB), and the trial without stimulus (NOSTIM; background 65 dB only). A test session started and ended, respectively, with four NOSTIM trials and four PULSEALONE trials. In between, each of the four types of trials was presented 14 times randomly, that is, 56 trials were given in a test session. The intertrial interval was given randomly from 5 to 20 s. In the PREPULSE+PULSE trial, a 71 or 77 dB prepulse was given 120 ms before the 115 dBpulse. The magnitude of PPI (PPI %) was determined, after summarizing the startle responses in PULSEALONE and PREPULSE+PULSE trials, according to the equation (PULSEALON−PREPULSE+PULSE)/PULSEALONE×100%. The tested compound or vehicle was given to the animal for 15 min, followed by methamphetamine (2 mg/kg). The PPI test was conducted 10 min after injection of methamphetamine. Data were expressed as the mean±S.E.M. Statistical comparisons among groups were analyzed by ANOVA with Tukey post hoc test, and differences between groups were analyzed by Student's t-test. Two-way ANOVA with Bonferroni's post hoc test was used to analyze differences in the time courses of locomotor activity among groups. Differences were considered significant if P<0.05.
Methamphetamine and apomorphine were dissolved in normal saline for i.p. And s.c. Injections, respectively. Tested compounds and haloperidol, when given by i.p. Injection, were dissolved in a vehicle containing 20% dmso, 20% Cremophor® el (polyoxyethylene castor, sigma-aldrich) and 60% normal saline. Furosemide was dissolved (20 nmole/μL) in dimethylsulfoxide for intra-cerebellar microinjection the i.p. or s.c. Injection volume was 10 mL/kg.

Data set [4] is described as follows: Solubility of compounds in DI water. Format: physicochemical. The note with it: thermodynamic from solid; 2 mg in 2 mL DI water, sonicated at 60° C. for 2 hours, cooled to room temperature, filtered. As for the experimental part: The solubility of the compounds was examined by sonicating 2 mg of each respective compound in 2 mL of DI water at 60° C. for 2 hours. Solutions were cooled to room temperature and then filtered using a syringe filter. The resultant solutions were injected into a mass spectrometer using a SIM method, calibrated to the respective retention times and mass units of each compound. Calibration curves using standard solutions (5 data points) of each compound dissolved in methanol were used to calculate the unknown aqueous concentrations of each compound.

The next data set deals with T1, α6β3γ2 receptor (Rattus norvegicus, UniProt P30191+P63079).
T1 construct: expressed in transfected cells; host or cells: Xenopus laevis oocytes injected with subunit mRNA (3:1:5)
The experiment in a line: Electrophysiology in Xenopus oocytes, modulation of GABA currents. Format: cell-based. The note with it: modulation of GABA EC3 currents. On the procedure:
Mature female Xenopus laevis (Nasco, Fort Atkinson, Wis., USA) were anaesthetized in a bath of ice-cold 0.17% Tricain (Ethyl-m-aminobenzoat, Sigma-Aldrich, St. Louis, Mo., USA) before decapitation and transfer of the frog's ovary to ND96 medium (96 mM NaCl, 2 mM KCl, 1 mM MgCl2, 5 mM HEPES; pH 7.5). Following incubation in 1 mg/mL collagenase (Sigma-Aldrich, St. Louis, Mo., USA) for 30 min, stage 5 to 6 oocytes were singled out of the ovary and defolliculated using a platinum wire loop. Oocytes were stored and incubated at 18° C. in NDE medium (96 mM NaCl, 2 mM KCl, 1 mM MgCl2, 5 mM HEPES, 1.8 mM CaCl2; pH 7.5) that was supplemented with 100 U per mL-1 penicillin, 100 μg per mL-1 streptomycin and 2.5 mM pyruvate. Oocytes were injected with an aqueous solution of mRNA. A total of 2.5 ng of mRNA per oocyte was injected. Subunit ratio was 1:1:5 for αxβγ2 (x=1, 2, 3, 5) and 3:1:5 for α4/6β3γ2 and αβδ receptors. Injected oocytes were incubated for at least 36 h before electrophysiological recordings. Oocytes were placed on a nylon-grid in a bath of NDE medium. For current measurements, the oocytes were impaled with two microelectrodes (2-3MΩ), which were filled with 2 M KCl. The oocytes were constantly washed by a flow of 6 mL per min-1 NDE that could be switched to NDE containing GABA and/or drugs. Drugs were diluted into NDE from DMSO solutions resulting in a final concentration of 0.1% DMSO. […] To test for modulation of GABA induced currents by compounds, a GABA concentration that was titrated to trigger 3-5% of the respective maximum GABA-elicited current of the individual oocyte (EC3-5) was applied to the cell together with various concentrations of tested compounds. All recordings were performed at room temperature at a holding potential of −60 mV using a Warner OC-725C TEV (Warner Instrument, Hamden, Conn., USA) or a Dagan CA-1B Oocyte Clamp or a Dagan TEV-200A TEV (Dagan Corporation, Mineapolis, Minn., USA). Data were digitized using a Digidata 1322A or 1550 data acquisition system (Axon Instruments, Union City, Calif., USA), recorded using Clampex 10.5 software (Molecular Devices, Sunnyvale, Calif., USA), and analyzed using Clampfit 10.5 and GraphPad Prism 6.0 (La Jolla, Calif., USA) software. Concentration-response data were fitted using the Hill equation. Data are given as mean±SEM from at least three oocytes of two batches.
For selected test compounds full dose response curves were recorded in α1-6β3γ2 receptors. For selected compounds, dose response curves in additional receptor subtypes (α1, 4, 6β3δ, α6β1, 2γ2, α1-6β3) were also obtained. For a wider panel of compounds, a two point screening pharmacology was obtained at 1 and 10 μM compound concentrations.

T1 sequence (P30191 20-453): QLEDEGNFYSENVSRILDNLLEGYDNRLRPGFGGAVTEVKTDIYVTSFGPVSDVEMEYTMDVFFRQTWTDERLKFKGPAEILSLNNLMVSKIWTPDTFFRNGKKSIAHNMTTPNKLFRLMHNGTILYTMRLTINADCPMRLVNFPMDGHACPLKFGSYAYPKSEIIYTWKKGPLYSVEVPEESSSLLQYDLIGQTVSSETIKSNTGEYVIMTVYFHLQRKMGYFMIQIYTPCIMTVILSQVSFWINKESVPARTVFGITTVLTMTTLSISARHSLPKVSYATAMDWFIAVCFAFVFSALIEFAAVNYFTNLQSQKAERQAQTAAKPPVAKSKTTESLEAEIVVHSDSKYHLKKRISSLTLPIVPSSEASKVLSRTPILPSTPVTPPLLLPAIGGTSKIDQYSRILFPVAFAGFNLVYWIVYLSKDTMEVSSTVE
T1 sequence (P63079 26-473): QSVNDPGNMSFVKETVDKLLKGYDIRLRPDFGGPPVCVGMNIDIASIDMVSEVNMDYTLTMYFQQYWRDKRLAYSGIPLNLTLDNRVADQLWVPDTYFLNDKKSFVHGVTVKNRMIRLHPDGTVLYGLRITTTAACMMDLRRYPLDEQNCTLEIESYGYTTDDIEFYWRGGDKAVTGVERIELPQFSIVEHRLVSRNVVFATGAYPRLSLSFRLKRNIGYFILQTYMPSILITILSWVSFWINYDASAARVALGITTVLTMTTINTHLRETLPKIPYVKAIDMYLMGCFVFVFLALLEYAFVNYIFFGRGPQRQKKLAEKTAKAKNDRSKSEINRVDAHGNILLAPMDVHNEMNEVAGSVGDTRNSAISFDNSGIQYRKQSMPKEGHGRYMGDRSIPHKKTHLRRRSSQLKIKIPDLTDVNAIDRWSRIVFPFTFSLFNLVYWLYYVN
T1 sequence (P18508 39-466 partner): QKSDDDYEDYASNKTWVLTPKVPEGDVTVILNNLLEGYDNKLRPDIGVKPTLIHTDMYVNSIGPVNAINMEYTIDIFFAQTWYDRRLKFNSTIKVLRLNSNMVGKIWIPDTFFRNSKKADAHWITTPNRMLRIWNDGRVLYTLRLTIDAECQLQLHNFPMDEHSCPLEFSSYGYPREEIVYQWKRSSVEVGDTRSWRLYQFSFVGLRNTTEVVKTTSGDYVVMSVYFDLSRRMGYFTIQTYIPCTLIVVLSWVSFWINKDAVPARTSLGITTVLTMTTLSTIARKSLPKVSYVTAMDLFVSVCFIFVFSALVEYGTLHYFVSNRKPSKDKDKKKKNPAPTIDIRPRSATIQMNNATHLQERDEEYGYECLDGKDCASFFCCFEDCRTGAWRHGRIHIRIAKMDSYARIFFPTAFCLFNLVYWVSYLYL

As to `COc1ccc(-n2nc3c4ccc(Br)cc4[nH]cc-3c2=O)cn1` [DK-II-48-1, 7-Bromo-2-(6-methoxypyridin-3-yl)-2,5-dihydro-3H-pyrazolo[4,3-c]quinolin-3-one], in data set [1], the “% left after 1 hr. (HLM)” value worked out at 93.4 ± 0.11% and the “Half-life (min) (HLM)” value was found to be 727.7 ± 115 min. In data set [2], the “% left after 1 hr. (MLM)” value was 93.12 ± 0.22% and the “Half-life (min) (MLM)” value turned out to be 680.6 ± 114 min. In the data set with HEPG2 cell line, the “toxicity at 400 μM” value is on record as “non-toxic”.
As for `[2H]C([2H])([2H])Oc1cccc(-n2nc3c4cc(Cl)ccc4[nH]cc-3c2=O)c1` [DK-I-59-1, 8-Chloro-2-(3-methoxy-d3-phenyl)-2,5-dihydro-3H-pyrazolo[4,3-c]quinolin-3-one], in data set [1], the “% left after 1 hr. (HLM)” value is listed as 93 ± 0.09% and the “Half-life (min) (HLM)” value is listed as 649 ± 81 min. In addition, in data set [2], the “% left after 1 hr. (MLM)” value stood at 76.6 ± 0.11% and the half-life (commonly how long it takes for the measured level to halve) at 10 μM was determined as 166 ± 7.5 min. For the same compound, in the data set on HEPG2 cell line, the “toxicity at 400 μM” value is “non-toxic”. The “rescue of METH-impaired PPI” value in data set [3] is given as “effective”.
`[2H]C([2H])([2H])Oc1ccc(-n2nc3c4ccc(Br)cc4[nH]cc-3c2=O)cc1` [DK-I-58-1, 7-Bromo-2-(4-methoxy-d3-phenyl)-2,5-dihydro-3H-pyrazolo[4,3-c]quinolin-3-one]: the solubility (usually how much of the substance goes into solution per volume) at 2 h in data set [4] is 9.2 µg/mL (≈ 24.7 µM). Moreover, in data set [1], the “% left after 1 hr. (HLM)” value is listed as 81.5 ± 0.11% and the “Half-life (min) (HLM)” value amounted to 204.6 ± 10 min. Further, in data set [2], the “% left after 1 hr. (MLM)” value is reported as 73.8 ± 0.15% and the half-life at 10 μM amounted to 140 ± 7.18 min. In addition, in the data set with HEPG2 cell line, the “toxicity at 400 μM” value was “non-toxic”.
Turning to `COc1ccc(-n2nc3c4cc(Cl)ccc4[nH]cc-3c2=O)cc1` [Compound 11, 8-Chloro-2-(4-methoxyphenyl)-2,5-dihydro-3H-pyrazolo[4,3-c]quinolin-3-one], in data set [1], the “% left after 1 hr. (HLM)” value is reported as 72.5 ± 0.11%. In addition, the half-life at 10 μM stood at 135 ± 5 min in data set [1] (human, liver microsomes, pH 7.4, read-out: Half-life (min) (HLM)) and 116 ± 5.2 min in data set [2]. In addition, the “% left after 1 hr. (MLM)” value in data set [2] is 69.2 ± 0.15%. Besides, the “selectivity for α6β3γ2 over other αxβ3γ2 receptors” value at α6β3γ2 receptor was “strongly modulates other GABAA receptor subtypes”. Moreover, in data set [3] (furosemide 10 nmol intra-cerebellar microinjection), the “effect of intra-cerebellar furosemide on the rescue of PPI” value was “prevented”. Further, the figures for the “rescue of METH-impaired PPI” value in data set [3] and in data set [3] (listed as C11) were “effective; also recorded: significantly rescued” and “significantly rescued”, respectively.

(Values after patent publication US10865203B2, “Ligands selective to alpha 6 subunit-containing GABAA receptors and their methods of use” (UWM Research Foundation, Inc., priority 2015, dated 2020).)
